Measurements: PMC8147781, “Discovery of Pyrrolidine-2,3-diones as Novel Inhibitors of P. aeruginosa PBP3” (Antibiotics, 2021)
In brackets after ≈: the same amount, converted by molar mass.

Legend:
[1] = target: T1, PBP3 of P. aeruginosa (PaPBP3) (Pseudomonas aeruginosa, UniProt G3XD46); test: S2dfluo fluorescence transpeptidase assay; assay type: biochemical; settings: 300 nM PaPBP3, 30 min preincubation, 37 °C; for IC50: read-out: IC50 Determination with PaPBP3, S2dfluo Assay
T1 construct: P. aeruginosa PBP3 (amino acids 40 to 563); His-tag; made in house; host or cells: E. coli BL21 (DE3) Rosetta, plasmid pET41_PBP-3
Procedure: The assays were carried out in the presence of 5% DMSO and 0.01% Triton X100 to avoid the formation of colloidal structures and adsorption of protein and/or compounds to surfaces. The Z’-factor determined for the assay was 0.73 ± 0.28, indicating the suitability and robustness of the assay for high throughput screening (HTS) (Figure 1B,C).
The activity of soluble ^PaPBP3 (300 nM) was measured in the presence of 0.8 mM S2d, 1 mM D-alanine and 0.5 mM mBBr for 25 min by monitoring the increase in the fluorescence intensity of mBBr at Ex/Em: 394/490 nm using an Infinite M1000 microplate reader (Tecan, Männedorf, Switzerland). To test the effect of inhibitors, 100 µM or 0.8 to 100 µM of compounds diluted in 96% DMSO were incubated for 30 min and 450 rpm with 300 nM soluble PBP3. The incubation period was set to improve the binding of non-covalent inhibitors and 0.01% Triton X100 (Sigma-Aldrich, Taufkirchen, Germany) was added to prevent aggregation of compounds. The enzyme reaction was started by adding a substrate mix of 0.8 mM S2d and […]. The enzyme, compound and substrate mix were mixed 1:1, pipetted with a Liquidator 96 (Melter Toledo, Gießen, Germany) and the fluorescence intensity was directly monitored with an Infinite M1000 microplate reader (Tecan) at Ex/Em: 394/490 nm. The assay was performed in black, flat-bottom 96-well microplates (Greiner Bio-One, Kremsmünster, Austria) at 37 °C in Sorensen Phosphate Buffer (57 mM Na2HPO4 and 10 mM KH2PO4, pH 7.5 + 0.01% Triton X-100). The velocity of the PBP3 reaction was calculated in the presence of each concentration of compound and the velocity values were used to estimate IC50 by sigmoidal nonlinear regression, using Prism v.9 software (San Diego, CA, USA) and the velocity of the reaction at each concentration.

[2] = system: E. coli Neumann; test: MIC broth microdilution, E. coli; assay type: cell-based; settings: Escherichia coli; Table S3; read-out: MIC (µM) E. coli Neumann
Outline: (§1)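 CLSI broth microdilution in cation-adjusted Mueller Hinton broth, 5 × 10^4 bacteria per well with 1:2 serial compound dilutions, PMBN added where applicable. MIC read visually after 18 h at 37 °C. Confirmation by 10% PrestoBlue, fluorescence at Ex/Em 550/595 nm after 30 min.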

[3] = system: K. pneumoniae clinical isolate; test: MIC broth microdilution, K. pneumoniae; assay type: cell-based; settings: Klebsiella pneumoniae; Table S3
Outline: as §1

[4] = system: A. baumannii ATCC15308; test: MIC broth microdilution, A. baumannii; assay type: cell-based; settings: 10 µg/mL PMBN
Outline: as §1

[5] = system: S. pneumoniae; test: MIC broth microdilution, S. pneumoniae; assay type: cell-based; settings: Streptococcus pneumoniae; Table S3; read-out: MIC (µM) S. pneumoniae
Outline: as §1

[6] = system: B. subtilis 168; test: MIC broth microdilution, B. subtilis; assay type: cell-based; settings: Bacillus subtilis, 168; Table S3
Outline: as §1

[7] = system: S. aureus 133; test: MIC broth microdilution, S. aureus; assay type: cell-based; settings: Staphylococcus aureus, 133; Table S3
Outline: as §1

[8] = system: T-lymphoblast CCRF-CEM cell line; test: Cytotoxicity assay (PrestoBlue), CCRF-CEM; settings: for Cytotoxicity CCRF-CEM: CC50, 72 h
Procedure: (§2) We finally tested the cytotoxicity of the compounds against four eukaryotic cell lines (Table 2 and Table S5), NRK-52E, an epithelial kidney cell line of Rattus norvegicus; Hep G2, an human epithelial liver cell line; and two suspension cell lines: CCRF-CEM, a T lymphoblast; and H9, a cutaneous T lymphocyte cell line.
(§3) Cell lines stored at −120 °C were thawed to 37 °C and resuspended in 10 mL of medium pre-warmed to 37 °C. Cells were pelleted at 300× g for 10 min, and then resuspended in fresh medium, seeded in a T-75 culture flask, and placed in a CO2 incubator (37 °C with 5% CO2 tension). Once the cells reached approximately 70–80% confluency, they were then passaged regularly. The adherent cell lines NRK52E, HepG2 and Huh 7 were washed once with 10 mL DPBS and detached with Trypsin-EDTA for 5 to 7 min and resuspended in 15 mL of the appropriate medium. The suspension cell line CCRF-CEM were diluted and resuspended in fresh RPMI 1640 PAN medium. To calculate the cell density, the cell resuspensions were diluted 1:6 with DPBS. Equal volumes of cell suspension and Trypan Blue were mixed and gently loaded into a haemocytometer (INCYTO, 31056 Republic of Korea). In each experiment, cell concentrations were adjusted to reach a concentration of 2.5 × 10^3 cell/well for NRK52E, 5 × 10^3 cell/well for HepG2, 6.2 × 10^4 cell/well for CCRF-CEM and 3 × 10^3 for H9. The cells were incubated with decreasing concentration of compounds (1 µL in 96% DMSO) for 72 h at 37 °C with 5% CO2 tension. Cycloheximide, a cytotoxic compound that interferes with the translocation step in eukaryotic protein synthesis was used as a control for the experiments. The assay was carried out in flat-bottom, transparent 96-well plates. Cell viability was determined using the PrestoBlue reagent (Thermo Fisher Scientific, Waltham, MA, USA) according to the manufacture’s protocol. First, 10× PrestoBlue was added to each well to obtain a 1× solution, and incubated at 37 °C for 45 min. Then, fluorescence was measured at Ex/Em: 550/595 nm using a ClarioStar microplate reader (BMG Labtech). Cytotoxicity was determined as the percentage of the difference in absorbance of the untreated sample to the treated sample. CC50 was calculated using the values obtained in each concentration using the sigmoidal dose-response by Prism v.8. The media used in each cell line is detailed in Table S6.

[9] = system: Hep G2, epithelial liver cell line; test: Cytotoxicity assay (PrestoBlue), HepG2; settings: CC50, 72 h
Procedure: as §2, §3

[10] = system: NRK-52E, epithelial kidney cell line; test: Cytotoxicity assay (PrestoBlue), NRK52E; settings: CC50, 72 h
Procedure: as §2, §3

[11] = system: H9, cutaneous T lymphocyte cell line; test: Cytotoxicity assay (PrestoBlue), H9; settings: CC50, 72 h
Procedure: as §2, §3

T1 sequence (G3XD46 40-563): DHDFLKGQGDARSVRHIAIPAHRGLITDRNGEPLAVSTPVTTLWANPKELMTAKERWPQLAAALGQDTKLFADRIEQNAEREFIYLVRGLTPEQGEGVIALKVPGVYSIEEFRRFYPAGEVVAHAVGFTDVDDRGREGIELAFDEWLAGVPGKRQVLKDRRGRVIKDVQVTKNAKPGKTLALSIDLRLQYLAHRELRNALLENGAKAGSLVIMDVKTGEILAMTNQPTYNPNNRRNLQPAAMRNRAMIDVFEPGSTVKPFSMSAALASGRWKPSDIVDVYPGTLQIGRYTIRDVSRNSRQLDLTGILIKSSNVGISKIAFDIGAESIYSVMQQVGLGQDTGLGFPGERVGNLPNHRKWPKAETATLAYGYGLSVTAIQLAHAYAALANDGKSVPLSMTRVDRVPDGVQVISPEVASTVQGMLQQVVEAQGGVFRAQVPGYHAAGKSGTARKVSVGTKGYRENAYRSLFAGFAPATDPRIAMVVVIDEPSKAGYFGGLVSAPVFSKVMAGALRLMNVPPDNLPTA

SMILES | IC50 [1] [µM] | MIC [2] [µM] | MIC [3] [µM] | MIC (µM) A. baumanii ATCC15308 [4] [µM] | MIC [5] [µM] | MIC [6] [µM] | MIC [7] [µM] | Cytotoxicity CCRF-CEM [8] [µM] | Cytotoxicity effect (µM) Epithelial liver HepG2 [9] [µM] | Cytotoxicity effect (µM) Epithelial kidney NRK52E [10] [µM] | Cytotoxicity effect (µM) T-lymphocyte H9 [11] [µM] | IC50 Determination with PaPBP3, S2dfluo Assay [1] | cytotoxic potential at the tested cell lines ([8]; four cell lines: NRK-52E, Hep G2, CCRF-CEM, H9)
O=C(C1=C(O)C(=O)N(CCc2c[nH]c3ccccc23)C1c1ccc(Cl)cc1)c1ccc(Br)cc1 (stereo not drawn) [Compound 40] | 8 ± 4 | > 100 | > 100 | > 100 | 12.5 (≈ 6.7 µg/mL) | > 100 | > 100 | 93 ± 4 | > 100 | > 100 | > 100 | – | –
O=C(C1=C(O)C(=O)N(Cc2ccco2)C1c1ccc(Cl)cc1)c1ccc(Br)cc1 (stereo not drawn) [Compound 41, 4-(4-bromobenzoyl)-5-(4-chlorophenyl)-1-(furan-2-ylmethyl)-3-hydroxy-5H-pyrrol-2-one] | > 100 | > 100 | > 100 | > 100 | 50 (≈ 23.6 µg/mL) | > 100 | > 100 | >100 | > 100 | > 100 | > 100 | abolished the inhibitory activity | –
O=C(C1=C(O)C(=O)N(Cc2cscn2)C1c1ccc(Cl)cc1)c1ccc(Br)cc1 (stereo not drawn) [Compound 42] | > 100 | > 100 | > 100 | > 100 | > 100 | > 100 | > 100 | >100 | > 100 | > 100 | > 100 | abolished the inhibitory activity | –
O=C(C1=C(N2CCOCC2)C(=O)N(Cc2cccc(F)c2)C1c1ccc(Cl)cc1)c1ccc(Br)cc1 (stereo not drawn) [Compound 44, 4-(4-bromobenzoyl)-5-(4-chlorophenyl)-1-[(3-fluorophenyl)methyl]-3-(morpholin-4-yl)-5H-pyrrol-2-one] | > 100 | > 100 | > 100 | > 100 | > 100 | > 100 | > 100 | > 100 | > 100 | 52 ± 3 | > 100 | – | –
CCNC1=C(C(=O)c2ccc(Br)cc2)C(c2ccc(Cl)cc2)N(Cc2c[nH]c3ccccc23)C1=O (stereo not drawn) [Compound 45] | > 100 | > 100 | > 100 | > 100 | 25 (≈ 13.7 µg/mL) | > 100 | 6.25 (≈ 3.43 µg/mL) | – | 23 ± 8 | 23 ± 11 | 32 ± 10 | – | high cytotoxic potential
